Series [1] can be described thus: Binding affinity to bradykinin.
Series [2] in a line: Binding affinity to desarginyl(1)bradykinin.
Series [3] is described as follows: Binding affinity to desarginyl(9)bradykinin.
Series [4] in a line: Binding affinity to bradykinin peptide Arg-Pro-Pro-Gly-Phe.
Series [5] is described as follows: Antioxidant activity assessed by superoxide anion scavenging assay. The series is classed as functional.
A short description of series [6]: Antioxidant activity assessed by hydroxyl radical scavenging assay. Type of series: functional.
Series [7] in a line: Antioxidant activity assessed by singlet oxygen scavenging assay. Type of series: functional.
Series [8] in a line: Octanol-water partition coefficient of the compound. The series is classed as physicochemical. The note with it: read-out: log KOW.

Take `O=C(OC[C@H]1O[C@@H](OC(=O)c2cc(O)c(O)c(O)c2)[C@H](OC(=O)c2cc(O)c(O)c(O)c2)[C@@H](OC(=O)c2cc(O)c(O)c(O)c2)[C@@H]1OC(=O)c1cc(O)c(O)c(O)c1)c1cc(O)c(O)c(O)c1`: the Ka in series [1] is 33.7 M⁻¹; in series [2], 20 M⁻¹; in series [3], 20.4 M⁻¹; in series [4], 13 M⁻¹.

Usually IC50 stands for the midpoint of a concentration-inhibition curve. On to `O=C(OC[C@@H]1OC(O)[C@](O)(COC(=O)c2cc(O)c(O)c(O)c2)[C@H]1O)c1cc(O)c(O)c(O)c1` (stereo partly specified) [HAMAMELITANIN], for which the IC50 in series [5] amounted to 1310 nM; in series [6], 5.46 µM; in series [7], 45.5 µM.

With `O=C1OC[C@H]2OC(=O)c3cc(O)c(O)c(O)c3-c3c(O)c(O)c(O)c4c3C(=O)O[C@H]([C@H]3OC(=O)c5c-4c(O)c(O)c(O)c5[C@H]3O)[C@@H]2OC(=O)c2cc(O)c(O)c(O)c2-c2c1cc(O)c(O)c2O` [CASTALAGIN], in series [8], the logP was 0.1.

On to `O=C1O[C@H]([C@@H](O)CO)C(O)=C1O` [ASCORBIC ACID], for which the IC50 came to 23300 nM in series [5], 18.8 µM in series [6] and 120 µM in series [7].

On to `O=C(O)c1cc(O)c(O)c(O)c1` [GALLIC ACID], for which the IC50 in series [5] came out at 1010 nM; in series [6] it was 78 µM; in series [7], 69.8 µM.

As for `CCCOC(=O)c1cc(O)c(O)c(O)c1` [PROPYL GALLATE], the IC50 stood at 1410 nM in series [5], 86.5 µM in series [6] and 66.7 µM in series [7].

In turn, `O=C(OC[C@H]1O[C@@H](OC(=O)c2cc(O)c(O)c(O)c2)[C@H](O)[C@@H](OC(=O)c2cc(O)c(O)c(O)c2)[C@@H]1O)c1cc(O)c(O)c(O)c1` registered a Ka in series [1] of 4.4 M⁻¹.

For the compound `O=C1OCC2OC(=O)c3cc(O)c(O)c(O)c3-c3c(O)c(O)c(O)c4c3C(=O)OC(C2OC(=O)c2cc(O)c(O)c(O)c2-c2c1cc(O)c(O)c2O)C1OC(=O)c2c-4c(O)c(O)c(O)c2C1O` (stereo unspecified) [VESCALAGIN], the logP in series [8] was found to be 0.1.

The compound `Oc1cc(O)c2c(c1)O[C@H](c1ccc(O)c(O)c1)[C@H](O)[C@H]2c1c(O)cc(O)c2c1O[C@H](c1ccc(O)c(O)c1)[C@H](O)C2` came in with a Ka in series [1] of 8.2 M⁻¹.

For the compound `O=C(OC[C@H]1O[C@@H](OC(=O)c2cc(O)c(O)c(O)c2)[C@H](OC(=O)c2cc(O)c(O)c(O)c2)[C@@H](O)[C@@H]1OC(=O)c1cc(O)c(O)c(O)c1)c1cc(O)c(O)c(O)c1`, the Ka in series [1] is 20.5 M⁻¹.

For the origin of these results see ChEMBL document CHEMBL1158188, “Natural polyphenols (vegetable tannins) as drugs: possible modes of action” (J Nat Prod, 1996).
